Source: PMC6272662, “Trypanocidal Activity of Long Chain Diamines and Aminoalcohols” (Molecules, 2015)
Like-named read-outs stand apart in the source and are kept apart here.

Assays:
[1] = test system: Trypanosoma cruzi epimastigotes strain JEM (MHOM/CO/05/JEM); assay: Epimastigote susceptibility assay, JEM strain (Trypan Blue and XTT); assay type: cell-based; details: for JEM Strain SI (Selectivity Index: LC50-macrophages/IC50-epimastigotes): JEM strain epimastigotes vs J774.2 macrophages; for IC50 / JEM Strain PNFX (potency relative to NFX = IC50-NFX/IC50-compound; also called NI): epimastigotes, JEM strain; for IC50: 72 h at 28 °C, 0.1-70.0 µM, mean ± SEM
Experimental: (§1) For in vitro studies, the strains MHOM/CO/04/MG (MG), MHOM/CO/05/JEM (JEM) and CL Brener strain clone B5 (CL-B5) were used. The MG and JEM strains correspond to Group I and Haplotype Ia isolates from two Colombian patients in the acute phase, and CL-B5 is a strain stably transfected with Escherichia coli β-galactosidase gene (lacZ). Epimastigotes were grown in plastic culture flasks at 28 °C, in axenic liver-infusion tryptose (LIT) growth medium, supplemented with 10% heat inactivated (30 min at 56 °C) foetal calf serum (FCS; Sigma), […] hemin (Sigma), and 10 µg/mL gentamycin (Sigma) and harvested in the exponential phase for conducting the experiments. Cultures were continuously maintained in logarithmic growth by weekly passages.
(§2) Three different strains of T. cruzi were used for the primary screening on epimastigote forms. For strains MG and JEM, the screening assay was performed with approximately 1 × 10^5 epimastigotes in logaritmic growth phase in 200 μL of supplemented LIT medium per well in 96-well flat bottoned plates (Costar, Corning, Cornig, NY, USA). […] The plates were incubated for 72 h at 28 °C and all experimental conditions were evaluated in triplicate in three independent experiments. The epimastigote growth inhibition was microscopically determined by the Trypan Blue dye exclusion assay and XTT (2,3-bis-(2-methoxy-4-nitro-5-sulfophenyl)-5-[(phenylamino)carbonyl]-2H-tetrazolium hydroxide). Regarding the first method, an aliquot from every culture was suspended in 0.4% trypan blue solution for 5 min and cell viability was determined under microscope by counting live parasites in each condition in a Neubauer chamber. Anti-epimastigote activity percentage was calculated as (Parasite counts in control wells-Parasite counts in experimental wells) × 100/Parasite counts in control wells. Trypanocidal activity over both strains was also measured adding 50 μL of XTT solution per well to obtain a final concentration of 0.3 mg/mL. The plate was re-incubated 24 h in the dark at 37 °C and orange formazan solution formed, was spectrophotometrically quantified at 450 nm with a 630 nm reference filter, using an Ear400FT ELISA reader.
(§3) Furthermore the Selectivity Index (SI = mammalian cell LC50/epimastigote IC50) for each compound was calculated to compare the antiprotozoal activity with its respective mammalian cell cytotoxicity.

in vitro = details: mouse
Experimental: (§4) The mouse cell lines J774.2 macrophages and NCTC clone 929 fibroblasts were used and cultured in plastic culture flasks. J774.2 and NCTC-929 cells were grown using DMEM and BME without phenol-red, respectively. Both media were supplemented with 10% heat inactivated fetal calf serum, 2 mM glutamine, 100 U/mL penicillin and 100 μg/mL streptomycin. Cell cultures were maintained at 37 °C in a humidified atmosphere containing 5% CO2 and subpassaged once a week. Cells in the pre-confluence phase were harvested with an EDTA-trypsin solution for the experiments.
(§5) Unspecific cytotoxicity was evaluated over phagocytic macrophages J774.2 cell line. To study cytotoxicity on J774.2 cells, 200 μL of a suspension of 2 × 10^5 macrophages/mL were added to 96 well flat-bottom microplates (Sigma). Cells were allowed to attach for 24 h at 37 °C and then exposed to the compounds for 72 h at the same concentrations as used for drug screening. […] Each concentration was assayed by triplicate, in independent experiments. Cytotoxicity was assessed by the Trypan Blue and XTT techniques and LC50 was calculated as described above.

[2] = test system: Trypanosoma cruzi epimastigotes strain MG (MHOM/CO/04/MG); assay: Epimastigote susceptibility assay, MG strain (Trypan Blue and XTT); assay type: cell-based; details: for MG Strain SI (Selectivity Index: LC50-macrophages/IC50-epimastigotes): MG strain epimastigotes vs J774.2 macrophages; for IC50 / MG Strain PNFX (potency relative to NFX = IC50-NFX/IC50-compound; also called NI): MG strain; for IC50: 72 h at 28 °C, 0.1-70.0 µM, mean ± SEM
Experimental: as §1, §2, §3

Chagas disease = test system: Chagas disease; parameters: method as in PMID 22614520, PMID 22760123, PMID 22686518, PMID 19967227; details: ref [6],[7],[8],[9], cited from earlier work
[3] = test system: Trypanosoma cruzi epimastigotes CL Brener strain clone B5 (CL-B5); assay: Epimastigote susceptibility assay, CL-B5 clone (β-galactosidase activity, CPRG); assay type: cell-based; details: Trypanosoma cruzi; epimastigotes, CL-B5 clone, 72 h at 28 °C, β-galactosidase readout, mean ± SEM
Experimental: as §1
Trypanocidal activity against CL-B5 strain was also assessed by measuring β-galactosidase activity. Briefly, log-phase epimastigotes were seeded in 96-well microplates at a density of 2.5 × 10^5 parasites/mL in a final volume of 200 μL/well and incubated within the compounds for 72 h at 28 °C. Afterwards, 50 μL of the β-galactosidase substrate chlorophenol red β-D-galactopyranoside (CPRG, Roche) in 0.9% Triton X-100 (Panreac) solution were added to each well (200 μM, pH 7.4) and the plates incubated at 37 °C for 3 h. Anti-epimastigote activity was estimated by reading absorbance at 595 nm. Each concentration was assayed by triplicate, in three independent experiments. […] In all spectrophotometric assays, anti-epimastigote activity percentages were calculated as (OD control wells − OD experimental wells) ×100/OD control wells.
as §3

[4] = test system: Trypanosoma cruzi amastigotes CL-B5 clone; assay: Amastigote susceptibility assay, CL-B5 clone in NCTC-929 fibroblasts (CPRG); assay type: cell-based; details: Trypanosoma cruzi, NCTC929, 168 h; intracellular amastigotes in NCTC-929 fibroblasts, 7 days, mean ± SEM
Experimental: For the anti-amastigote assays, axenic cultures of epimastigotes reaching their stationary phase of growth (14 day-old cultures) were used to infect non-confluent monolayers of NCTC-929 fibroblasts to obtain tissue culture derived trypomastigotes (TCT). After 24 h at 33 °C in a humidified 5% CO2 atmosphere, the infected cultures were washed with phosphate buffer saline (PBS) to removed non-penetrated epimastigotes. TCT were harvested from the supernatant of the cultures after one week of incubation in these conditions of temperature and humidity.
For this assay, 120 μL of BME containing 10,000 NCTC-929 fibroblasts/well were seeded in 48-well plates (Costar) and after their attachment, infected with TCT obtained as above in a 1:6 cell-parasite ratio. The plates were incubated at 33 °C and 5% CO2 overnight and after the infection, experimental wells were washed with PBS to eliminate non-penetrated TCT. […] Then, 50 μL of a CPRG solution in 3% Triton X-100 (pH 7.4) were added to each well in a final concentration of 400 μM and the plates incubated 3 h at 37 °C. Finally, anti-amastigote activity was estimated by reading absorbance at 595 nm in a plate reader (Infinite 200, Tecan) and calculated as in Fonseca-Berzal et al.. IC50 and NI indexes were calculated as above.

J774.2 macrophages = assay: in vitro; details: macrophages LC50 relative to NFX
Experimental: as §4, §5

[5] = Trypanosoma cruzi, 72 h, epimastigotes
[6] = chronic cases of Chagas disease

Row | IC50 ([1]; Trypanosoma cruzi, 72 h) [µM] | JEM Strain PNFX (potency relative to NFX = IC50-NFX/IC50-compound; also called NI) [1] | IC50 [2, 5] [µM] | MG Strain PNFX (potency relative to NFX = IC50-NFX/IC50-compound; also called NI) ([2]; epimastigotes) | IC50 [1] [µM] | IC50 ([2]; epimastigotes) [µM] | Compound | JEM Strain SI (Selectivity Index: LC50-macrophages/IC50-epimastigotes) [1] | CC50 at 72 h (in vitro) [µM] | MG Strain SI (Selectivity Index: LC50-macrophages/IC50-epimastigotes) [2] | average cure rate (Chagas disease; [6]) | IC50 [3] [µM] | IC50 [4] [µM] | average cure rate (Chagas disease; acute cases of Chagas disease) [%] | mild to moderate dermatitis (Chagas disease; adults) | times greater activity on the MG strain than the JEM strain ([2]; epimastigotes, MG vs JEM IC50) | times less toxic than NFX (J774.2 macrophages)
1 | 30.6 ± 0.65 | 0.5 | 26.7 ± 0.25 | 0.8 |  |  | CCCCCCCCCCCCCCC(CNCCCCCC)NC(=O)OC(C)(C)C (stereo not drawn) [Compound 17] | 0.1 | 4.2 ± 0.05 | 0.2 |  |  |  |  |  |  | 
2 | > 70 |  | > 70 |  |  |  | CCCCCCCCCCCCCCC(COCc1ccccc1)NCCCC (stereo not drawn) [Compound 13] |  |  |  |  |  |  |  |  |  | 
3 | 26.6 ± 0.7 | 0.6 | 19.2 ± 2.9 | 1.1 |  |  | CCCCCCCCCCCCCCC(N)CN (stereo not drawn) [Compound 19] | 2.9 | 78.1 ± 0.85 | 4.1 |  |  |  |  |  |  | 
4 | > 70 |  | 42.2 ± 1.4 | 0.5 |  |  | CCCCCCCCCCCCCCCCC(N)CN(CC)CC (stereo not drawn) [Compound 21] |  | 9.3 ± 0.5 | 0.2 |  |  |  |  |  |  | 
5 | 6.7 ± 2.1 | 2.2 | 13.9 ± 1 | 1.5 |  |  | CCCCCCCCCCCCCCCCC(CN)NC(=O)OC(C)(C)C (stereo not drawn) [Compound 16] | 3.6 | 24.1 ± 0.2 | 1.7 |  |  |  |  |  |  | 
6 | 28.8 ± 1.2 | 0.5 | 34.4 ± 1.8 | 0.6 |  |  | CCCCCCCCCCCCCCC(N)COCc1ccccc1 (stereo not drawn) [Compound 12] | 1.0 | 27.7 ± 0.1 | 0.8 |  |  |  |  |  |  | 
7 | > 70 |  | > 70 |  | > 70 | > 70 | CCCCCCCCCCCCCCC(CN(CCCCCC)CCCCCC)NC(=O)OC(C)(C)C (stereo not drawn) [Compound 18] |  |  |  |  |  |  |  |  |  | 
8 | > 70 | 0.3 | 42.2 | 0.6 | 48.8 ± 1.05 | 32.9 ± 1.25 | CCCCCCCCCCCCCCC(N)CNCCCCCC (stereo not drawn) [Compound 20] | 0.1 | 5 ± 0.1 | 0.2 |  |  |  |  |  |  | 
9 | > 70 |  | > 70 |  |  |  | CCCCCCCCCCCCCCC(CO)N(CC)CC (stereo not drawn) [Compound 10] |  | 5.6 ± 0.27 |  |  |  |  |  |  |  | 
10 | 50.3 ± 0.1 | 0.3 | > 70 |  |  |  | CCCCCCCCCCCCCCCCC(CO)N(CCCC)CCCC (stereo not drawn) [Compound 11] |  |  |  |  |  |  |  |  |  | 

Continued, compound first:

Row | Compound | IC50 ([1]; Trypanosoma cruzi, 72 h) [µM] | JEM Strain PNFX (potency relative to NFX = IC50-NFX/IC50-compound; also called NI) [1] | IC50 [2, 5] [µM] | MG Strain PNFX (potency relative to NFX = IC50-NFX/IC50-compound; also called NI) ([2]; epimastigotes) | IC50 [1] [µM] | IC50 ([2]; epimastigotes) [µM] | JEM Strain SI (Selectivity Index: LC50-macrophages/IC50-epimastigotes) [1] | CC50 at 72 h (in vitro) [µM] | MG Strain SI (Selectivity Index: LC50-macrophages/IC50-epimastigotes) [2] | average cure rate (Chagas disease; [6]) | IC50 [3] [µM] | IC50 [4] [µM] | average cure rate (Chagas disease; acute cases of Chagas disease) [%] | mild to moderate dermatitis (Chagas disease; adults) | times greater activity on the MG strain than the JEM strain ([2]; epimastigotes, MG vs JEM IC50) | times less toxic than NFX (J774.2 macrophages)
11 | CCCCCCCCCCCCCCCCC(N)CO (stereo not drawn) [Compound 3] | 9.9 ± 1.65 | 1.5 | 46.2 ± 2.5 | 0.5 |  |  | 0.3 | 3 ± 0.24 | 0.1 |  |  |  |  |  |  | 
12 | CC1CS(=O)(=O)CCN1/N=C/c1ccc([N+](=O)[O-])o1 (stereo not drawn) [NFX, nifurtimox, reference compound] | 14.8 ± 1.24 |  | 21.2 ± 1.16 |  |  |  |  |  |  | less than 20% | 10.4 ± 1.3 | 0.6 ± 0.01 |  |  |  | 
13 | O=C(Cn1ccnc1[N+](=O)[O-])NCc1ccccc1 [Bz, benznidazole] |  |  |  |  |  |  |  |  |  | less than 20% |  |  | ~80 | up to 30% |  | 
14 | CCCCCCCCCCCCCCC(CO)NCCCCCC (stereo not drawn) [Compound 7] | > 70 |  | 6 | 3.5 | > 70 | 6.1 ± 0.15 |  | 8.2 ± 1.55 | 1.3 |  |  |  |  |  | 11 | 
15 | CCCCCCCCCCCCCCCCC(CO)NCCCCCC (stereo not drawn) [Compound 8] | > 70 |  | > 70 |  |  |  |  | 26 ± 0.2 |  |  |  |  |  |  |  | 
16 | CCCCCCCCCCC(CO)NCCCCCC (stereo not drawn) [Compound 4] | 37.2 ± 1.25 | 0.4 | 21.1 ± 1.25 | 1.0 |  |  | 1.0 | 36.1 ± 2.3 | 1.7 |  |  |  |  |  |  | 
17 | CCCCCCCCCCC(N)CO (stereo not drawn) [Compound 1] | 33 ± 1.7 | 0.4 | 14.5 ± 3.15 | 1.5 |  |  | 0.4 | 14 ± 0.9 | 1.0 |  |  |  |  |  |  | 
18 | CCCCCCCCCCC(CO)N(CCCC)CCCC (stereo not drawn) [Compound 9] | 50.5 ± 0.7 | 0.3 | 39.2 ± 0.2 | 0.5 |  |  | 1.3 | 63.7 ± 0.73 | 1.6 |  |  |  |  |  |  | 1.3
